The results in this text go back to patent publication US11484601B2, “Targeting M2-like tumor-associated macrophages by using melittin-based proapoptotic peptide” (TWI[…]., priority 2018, dated 2022).

The experiment deals with M2 macrophage (RAW264.7 differentiated into M2-type with IL-4 and IL-13). Put plainly: MTS cell viability assay, M2-type macrophage. As to conditions: compared with MEL and DM1 alone. It counts as cell-based, mouse. How it is done:
More specifically, dKLA (SEQ ID NO: 2), MEL (SEQ ID NO: 1), MEL-dKLA (SEQ ID NO: 3; […]-d[KLAKLAKKLAKLAK]) peptide and 5-carboxyl tetramethylrhodamine (TMR)-conjugated dKLA, MEL and MEL-KLA peptides were purchased from GenScript (Piscataway, N.J., USA). TMR was conjugated with the amino group located at the N-terminal of the peptide. Regarding all of the peptides, 95% or greater purified peptides were used. Murine Lewis lung carcinoma (LLC) cells and macrophage RAW264.7 of mice were cultured in Dulbecco's modified Eagle's medium (DMEM; Welgene, Korea) to which 10% heat-inactivated fetal bovine serum (Welgene), 100 U/mL penicillin and 100 μg/mL streptomycin (Invitrogen, CA, USA) were added. Macrophage (RAW264.7) differentiated into M2-type was treated with IL-4 and IL-13 in the medium for 24 hours. After the treatment, the cells were cultured in a state in which serum was insufficient for 48 hours. M1-type macrophage was treated with 1 ng/mL of LPS for 24 hours to induce differentiation.
The cell viability test was measured via the MTS assay. RAW264.7 macrophage was differentiated into M1-type or M2-type macrophage which was inoculated onto a 96-well plate at 3×10^4 cells/well. The next day, the macrophage was treated with each of PBS, dKLA, MEL and MEL-dKLA. After 24 hours, the culture solution was replaced and the cell was treated with 20 μL MTS reaction solution (Promega, WI, USA), followed by reaction at 37° C. Then, […] was measured at 490 nm to measure cell viability.
The MEL-DM1 anticancer drug conjugation method and cell test method are as described above.

Turning to “MEL-DM1: melittin with N-terminal maleimide covalently bound to the free-sulfhydryl group of maytansine DM1”, the “M2 selective cell killing effect” value is on record as “higher M2 selective cell killing effect”.
